Test results as given in publication PMC4207550 (Drug Design, Development and Therapy, 2014).

Experiments:
Type in all cases: biochemical
[1] = molecular target: human recombinant butyrylcholinesterase (hBuChE) (Homo sapiens, UniProt P06276); assay: Inhibition of hBuChE, Ellman method
[2] = molecular target: human recombinant acetylcholinesterase (hAChE) (Homo sapiens, UniProt P22303); assay: Inhibition of hAChE, Ellman method
human recombinant MAO B [3] = molecular target: T1, human recombinant MAO B (Homo sapiens, UniProt P27338); assay: Test of reversibility of inhibition of human recombinant MAO B
T1 sequence (P27338 1-520): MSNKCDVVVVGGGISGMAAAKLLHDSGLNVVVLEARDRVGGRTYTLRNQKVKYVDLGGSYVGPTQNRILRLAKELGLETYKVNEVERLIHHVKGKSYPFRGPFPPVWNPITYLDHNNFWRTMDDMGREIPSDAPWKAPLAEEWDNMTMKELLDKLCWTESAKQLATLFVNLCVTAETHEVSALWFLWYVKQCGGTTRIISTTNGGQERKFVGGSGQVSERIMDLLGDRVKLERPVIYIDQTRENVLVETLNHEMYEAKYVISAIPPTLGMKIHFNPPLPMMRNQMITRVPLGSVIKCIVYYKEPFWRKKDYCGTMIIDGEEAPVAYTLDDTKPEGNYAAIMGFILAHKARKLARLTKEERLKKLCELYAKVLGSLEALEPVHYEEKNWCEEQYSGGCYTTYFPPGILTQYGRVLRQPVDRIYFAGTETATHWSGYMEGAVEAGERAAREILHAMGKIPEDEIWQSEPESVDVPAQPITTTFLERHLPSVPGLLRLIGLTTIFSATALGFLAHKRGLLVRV

human recombinant MAO B [4] = molecular target: T1, human recombinant MAO B; assay: Time-dependent inhibition of human recombinant MAO B; details: pre-incubation times 15–60 minutes

Sequence of human recombinant butyrylcholinesterase (hBuChE) (P06276 29-602): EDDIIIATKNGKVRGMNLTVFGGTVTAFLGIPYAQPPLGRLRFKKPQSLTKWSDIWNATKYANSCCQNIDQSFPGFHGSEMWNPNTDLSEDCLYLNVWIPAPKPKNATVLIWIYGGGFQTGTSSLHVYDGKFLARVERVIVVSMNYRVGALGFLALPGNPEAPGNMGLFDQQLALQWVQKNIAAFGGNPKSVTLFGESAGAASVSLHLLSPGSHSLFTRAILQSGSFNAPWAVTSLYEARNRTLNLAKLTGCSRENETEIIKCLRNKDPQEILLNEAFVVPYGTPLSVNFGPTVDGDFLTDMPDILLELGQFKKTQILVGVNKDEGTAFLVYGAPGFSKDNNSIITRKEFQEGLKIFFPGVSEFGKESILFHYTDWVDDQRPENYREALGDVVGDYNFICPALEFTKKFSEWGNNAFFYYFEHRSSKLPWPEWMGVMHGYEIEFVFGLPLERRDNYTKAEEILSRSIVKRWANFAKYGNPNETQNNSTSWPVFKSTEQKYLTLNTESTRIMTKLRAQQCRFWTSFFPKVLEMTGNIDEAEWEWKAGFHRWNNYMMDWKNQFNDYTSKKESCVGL
Sequence of human recombinant acetylcholinesterase (hAChE) (P22303 32-614): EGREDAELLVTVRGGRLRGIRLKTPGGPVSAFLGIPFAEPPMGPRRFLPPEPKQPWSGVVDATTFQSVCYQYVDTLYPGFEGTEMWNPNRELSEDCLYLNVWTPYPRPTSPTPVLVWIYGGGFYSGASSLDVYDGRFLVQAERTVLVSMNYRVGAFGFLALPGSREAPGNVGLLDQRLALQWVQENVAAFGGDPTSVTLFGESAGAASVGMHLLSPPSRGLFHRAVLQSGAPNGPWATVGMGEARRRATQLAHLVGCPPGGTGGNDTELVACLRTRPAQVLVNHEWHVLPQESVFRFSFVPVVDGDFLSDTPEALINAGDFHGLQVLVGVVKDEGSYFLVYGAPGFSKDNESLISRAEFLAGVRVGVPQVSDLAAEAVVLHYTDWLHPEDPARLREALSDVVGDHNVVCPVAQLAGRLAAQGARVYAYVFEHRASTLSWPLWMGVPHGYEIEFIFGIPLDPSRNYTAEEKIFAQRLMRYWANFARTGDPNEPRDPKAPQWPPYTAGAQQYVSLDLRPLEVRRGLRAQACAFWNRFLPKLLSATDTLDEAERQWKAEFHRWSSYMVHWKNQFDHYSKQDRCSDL

| SMILES | IC50 [1] | IC50 [2] | reversibility of hMAO B inhibition (human recombinant MAO B [3]; 50 μM, after 100-fold dilution with 1 mM tyramine) | inhibition at 50 µM (human recombinant MAO B [3]; read-out: initial MAO B inhibition) | time dependence of hMAO B inhibition (human recombinant MAO B [4]) | fold more active than donepezil for the inhibition of hAChE ([2]; vs donepezil) | fold more potent than donepezil for hBuChE ([1]; vs donepezil) |
| --- | --- | --- | --- | --- | --- | --- | --- |
| C#CCN(C)c1nc(NCCCCC2CCN(Cc3ccccc3)CC2)c(C#N)c(-c2ccccc2)c1C#N [DPH9] | 1.19 µM | – | – | – | – | – | – |
| C#CCN(C)c1nc(NCCCCC2CCN(Cc3ccccc3)CC2)c(C#N)cc1C#N [DPH14] | 0.835 ± 0.139 µM | 0.0131 ± 0.0021 µM | irreversible | 55% | time-dependent inhibition | – | – |
| C#CCNc1nc(NCCCCC2CCN(Cc3ccccc3)CC2)c(C#N)cc1C#N [DPH16] | 0.79 ± 0.11 µM | – | – | – | – | 3.1 fold | 9.2 fold |
| C#CCNc1nc(NCCCCC2CCN(Cc3ccccc3)CC2)c(C#N)c(-c2ccccc2)c1C#N [DPH12] | 0.77 ± 0.14 µM | – | – | – | – | – | – |
